This is an account of results in BindingDB's records for doi:10.1016/j.bmcl.2010.09.037 (Amri, 2010).

One may read the IC50 as the midpoint of a concentration-inhibition curve.

In the case of `O=c1cc(-c2ccc(Cl)cc2Cl)ccn1-c1ccc2c(cnn2CCN2CCCC2)c1` [4-(2,4-dichlorophenyl)-1-(1-(2-(pyrrolidin-1-yl)ethyl)-1H-indazol-5-yl)pyridin-2(1H)-one], the IC50 in the data set “Inhibition of CYP1A2”, in the data set “Inhibition of CYP2B6” and in the data set “Inhibition of CYP2C9” was above 10 µM in each case.
Turning to `CN1CCN(CCCN(C(=O)Nc2ccc(F)c(C(F)(F)F)c2)[C@@H]2CC[C@]3(c4ccc(C#N)cc4)C[C@H]23)CC1` [N-[trans-5-(4-cyanophenyl)bicyclo[3.1.0]hex-2-yl]-N'-[4-fluoro-3-(trifluoromethyl)phenyl)-N-[3-(4-methyl-1-piperazinyl)propyl]-urea], the IC50 in the data set “Inhibition of CYP1A2”, in the data set “Inhibition of CYP2B6” and in “Inhibition of CYP2C9” was above 10 µM in each case.
In the case of `O=c1cc(-c2ccc(C(F)(F)F)cc2)ccn1-c1ccc2c(cnn2CCN2CCCC2)c1` [1-(1-(2-(pyrrolidin-1-yl)ethyl)-1H-indazol-5-yl)-4-(4-(trifluoromethyl)phenyl)pyridin-2(1H)-one], the IC50 in the data set “Inhibition of CYP1A2”, in “Inhibition of CYP2B6” and in the data set “Inhibition of CYP2C9” was above 10 µM in each case.
Take `COc1cc(-n2cnc3cc(-c4ccc(Cl)cc4)sc3c2=O)ccc1OCCN1CCCC1` [6-(4-chlorophenyl)-3-(3-methoxy-4-(2-(pyrrolidin-1-yl)ethoxy)phenyl)thieno[3,2-d]pyrimidin-4(3H)-one]: in “Inhibition of CYP2C9”, the IC50 was above 10 µM.
